# Assay results: US9756864B2
# What was measured:
# [1] = system: Phytophthora infestans; assay type: in vivo; details: Table A; 100 ppm a.i.; tomatoes, preventive spray; 3 days after inoculation
# [2] = system: Botrytis cinerea; assay: Botrytis test (beans)/preventive; details: Table E, 100 ppm a.i., preventive spray, lesion size 2 days after inoculation
# Method: Botrytis Test (Beans)/Preventive
# After the spray coating has dried on, 2 small pieces of agar covered with growth of Botrytis cinerea are placed on each leaf. The inoculated plants are placed in a darkened chamber at 20° C. and a relative atmospheric humidity of 100%.
# 2 days after the inoculation, the size of the lesions on the leaves is evaluated.
# [3] = system: Venturia inaequalis; assay: Venturia test (apples)/preventive; details: preventive spray, 10 days after inoculation
# Method: Venturia Test (Apples)/Preventive
# After the spray coating has dried on, the plants are inoculated with an aqueous conidia suspension of the causal agent of apple scab (Venturia inaequalis) and then remain for 1 day in an incubation cabinet at approximately 20° C. and a relative atmospheric humidity of 100%.
# The plants are then placed in a greenhouse at approximately 21° C. and a relative atmospheric humidity of approximately 90%.
# The test is evaluated 10 days after the inoculation.
# [4] = system: Alternaria solani; assay: Alternaria test (tomatoes)/preventive; details: preventive spray, 3 days after inoculation
# Method: The application rate of QST30002 refers to the amount of dried Bacillus subtilis AQ30002 aka QST300202 (NRRL Accession No. B-50421.
# After the spray coating has dried on, the plants are inoculated with an aqueous spore suspension of Alternaria solani. The plants are then placed in an incubation cabinet at approximately 20° C. and a relative atmospheric humidity of 100%.
# The test is evaluated 3 days after the inoculation.
# [5] = system: Sphaerotheca fuliginea; assay: Sphaerotheca test (cucumbers)/preventive; details: preventive spray, 7 days after inoculation
# Method: Sphaerotheca Test (Cucumbers)/Preventive
# After the spray coating has dried on, the plants are inoculated with an aqueous spore suspension of Sphaerotheca fuliginea. The plants are then placed in a greenhouse at approximately 23° C. and a relative atmospheric humidity of approximately 70%.
# The test is evaluated 7 days after the inoculation.
compound,measurement,setting,value
"CC(C)Oc1cccc(NC(=O)c2ccccc2C(F)(F)F)c1 [F71 flutolanil, flutolanil]",Efficacy in % found (activity found),[1],33%
same,Efficacy in % found (activity found),[2],0%
same,Efficacy in % found (activity found),"[3]; Table B2, 100 ppm a.i.",4%
same,Efficacy in % found (activity found),"[4]; Table D2, 50 ppm a.i.",43%
same,Efficacy in % found (activity found),"[5]; Table C1, 100 ppm a.i.",0%
"O=C(NCCc1ncc(C(F)(F)F)cc1Cl)c1ccccc1C(F)(F)F [F70 fluopyram, fluopyram]",Efficacy in % found (activity found),"[3]; Table B1, 4 ppm a.i.",4%
same,Efficacy in % found (activity found),"[4]; Table D1, 4 ppm a.i.",33%
same,Efficacy in % found (activity found),"[5]; Table C2, 4 ppm a.i.",10%
"Cc1nn(C)c(F)c1C(=O)Nc1ccccc1C(C)CC(C)C (stereo not shown) [F84 penflufen, penflufen]",Efficacy in % found (activity found),"[3]; Table B1, 2 ppm a.i.",0%
same,Efficacy in % found (activity found),"[5]; Table C2, 2 ppm a.i.",0%
"Cn1cc(C(=O)Nc2ccccc2-c2cc(F)c(F)c(F)c2)c(C(F)F)n1 [F72 fluxapyroxad, fluxapyroxad]",Efficacy in % found (activity found),"[3]; Table B1, 0.5 ppm a.i.",43%
same,Efficacy in % found (activity found),"[4]; Table D1, 1 ppm a.i.",47%
same,Efficacy in % found (activity found),"[5]; Table C2, 1 ppm a.i.",29%
